Data from patent US20240025892A1 (priority 2020, published 2024).
pEC50, pIC50: −log10 of the molar value. Entries after “also recorded” stand apart in the source; their conditions may differ.

Assays:
[1] = 3-week mouse study: tolerability and serum drug levels; assay type: in vivo, mice
Protocol: […]. For oral gavage, cmpd. 51 was dissolved in vehicle solution of 15% hydroxy-propyl beta-cyclodextrin in sterile water.
(§1) […]. In addition, one group of mice with oral vehicle solution (negative control) and another group of mice were treated with once daily subcutaneous hPTH(1-34) (80 μg/kg) injections (positive control). […].

RANKL = RANKL gene expression in Ocy454 cells (RT-qPCR); conditions: for RANKL expression: 4 hours, RT-qPCR;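 as to all read-outs here: Ocy454 cells moved to 37 °C for osteocytic differentiation before compound exposure, RANKL mRNA by SYBR Green qRT-PCR, 2^−ΔΔCT with β-actin normalization, duplicate wells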
[2] = Initial mouse pharmacokinetic study; assay type: in vivo
[3] = tested on: eugonadal 8 week old male mice; test: 3-week mouse study: femur microCT; assay type: in vivo; conditions: 3 weeks; for midshaft cortical bone tissue mineral density (TMD), microCT: femur
Protocol: as §1

SOST = SOST gene expression in Ocy454 cells (RT-qPCR); assay type: cell-based; conditions: 4 hours
HDAC4/5 = HDAC4/5 phosphorylation immunoblot in Ocy454 cells; assay type: cell-based; conditions: 2 hours
Protocol: Immunoblotting was performed as previously described (see e.g., Wein et al, Nature Communications, 2016, 7:13176; and Sato et al, Nature Communications, 2020, 11(1):3282). […]. Adherent cells were washed with ice cold PBS, then scraped into TNT buffer on ice. Material was then transferred into Eppendorf tubes kept on ice, vortexed at top speed for 30 seconds, then centrifuged at top speed for 6 minutes at 4° C. For subcellular fractionation, cells were initially resuspended in hypotonic lysis buffer (20 mM HEPES, 10 mM KCl, 1 mM MgCl2, 0.1% Triton X-100, 5% glycerol supplemented with DTT, protease inhibitors, and phosphatase inhibitors) for 5 minutes on ice. Nuclear pellets were spun down at 5,000 rpm for 5 minutes, and the supernatant was saved as the cytoplasmic lysate. Thereafter, the nuclear pellet was washed once in 1 mL hypotonic lysis buffer. The nuclear pellet was then resuspended in hypertonic lysis buffer (20 mM HEPES, 400 mM NaCl, 1 mM EDTA, 0.1% Triton X-100, 5% glycerol supplemented with DTT, protease inhibitors, and phosphatase inhibitors), followed by vortexing twice for 30 seconds. Debris was spun down at 14,000 rpm for 5 minutes, and the supernatant was saved as the nuclear lysate. For immunoblotting, lysates or immunoprecipitates were separated by SDS-PAGE and proteins were transferred to nitrocellulose. Membranes were blocked with 5% milk in tris-buffered saline plus 0.05% Tween-20 (TBST) and incubated with primary antibody overnight at 4° C. The next day, membranes were washed, incubated with appropriate HRP-coupled secondary antibodies, and signals detected with ECL Western Blotting Substrate (Pierce), ECL Plus Western Blotting Substrate (Pierce), or SuperSignal West Femto Maximum Sensitivity Substrate (Thermo scientific). The primary antibodies phospho-HDAC4/5/7 (S246/S259/S155) (Cell Signaling Technology, 3443) and total HDAC5 (Assay Biotech, C0225).

[4] = tested on: eugonadal 8 week old male mice; test: 3-week mouse study: tibia histology and femur histomorphometry; assay type: in vivo; conditions: 3 weeks
Protocol: as §1

CRTC2 (TORC2) = test: CRTC2 nuclear translocation (PathHunter U2OS); assay type: cell-based
Method in brief: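 U2OS enzyme-fragment complementation cells (ED-tagged CRTC2, EA-tagged nuclear TAZ domain) treated 90 minutes, duplicate 5-point 4-fold dilutions from 10 μM. Chemiluminescent substrate signal; maximal translocation expressed as percent of forskolin-stimulated signal.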

[5] = tested on: eugonadal 8 week old male mice; test: 3-week mouse study: serum mineral metabolism parameters and bone turnover markers; assay type: in vivo; conditions: for serum CTX (bone resorption marker) / serum P1NP (bone formation marker): 40 mg/kg oral, 21 days, compared to vehicle; for serum 1,25-vitamin D / serum BUN / serum PTH levels / serum calcium / serum phosphorus: after 21 days of treatment, 2 hours after final dose
Protocol: . In addition, one group of mice with oral vehicle solution (negative control) and another group of mice were treated with once daily subcutaneous hPTH(1-34) (80 μg/kg) injections (positive control). […]. Serum mineral metabolism parameters were measured in mice in all 5 treatment groups after 21 days of treatment (serum was collected 2 hours after the final treatment dose). […]. Serum bone turnover markers (P1NP, a marker of bone formation; CTX, a marker of bone resorption) were next measured on samples collected after 21 days of treatment. […]

[6] = tested on: bone cell marker genes, sclerostin; test: 3-week mouse study: cortical bone RT-qPCR and sclerostin immunohistochemistry; assay type: in vivo, mice; conditions: 3 weeks of treatment
Protocol: . For this, cortical bone RNA isolated from mice following three weeks of cmpd. 51 treatment were analyzed and subjected to RT-qPCR for well-established bone cell marker genes. […]. […] Therefore, sclerostin (encoded by the Sost gene) expression in bone in response to cmpd. 51 treatment was also assessed by RT-qPCR and immunohistochemistry. […]. Cmpd. 55A (FIG. 17) was also identified. […]

SIK3 in HEK293T cells = SIK3 in HEK293T cells (Homo sapiens (Human), UniProt Q9Y2K2); test: cell-based; conditions: read-out: IC50 for SIK3 (nanoBRET)
SIK1 in HEK293T cells = SIK1 in HEK293T cells (Homo sapiens (Human), UniProt P57059); test: cell-based; conditions: read-out: IC50 for SIK1 (nanoBRET)
SIK1 = SIK1 (Homo sapiens (Human), UniProt P57059); test: In vitro SIK1 kinase assay; assay type: biochemical
Protocol: (§2) Assays were performed in base reaction buffer (20 mM Hepes (pH 7.5), 10 mM MgCl2, 1 mM EGTA, 0.02% Brij35, 0.02 mg/mL BSA, 0.1 mM Na3VO4, 2 mM DTT, 1% DMSO). Compounds were dissolved in 100% DMSO in a 10 mM stock. […] Assays were performed for 20 minutes at room temperature, after which time ^33P-ATP (10 μCi/μL) was added followed by incubation for another 120 minutes at room temperature. Thereafter, radioactivity incorporated into the pEY peptide substrate was detected by filter-binding method. Kinase activity data were expressed as the percent remaining kinase activity in test samples compared to DMSO reactions. IC50 values and curve fits were obtained using Prism (GraphPad Software).

Recombinant SIK2 = Recombinant SIK2 (Homo sapiens (Human), UniProt Q9H0K1); test: biochemical; conditions: recombinant SIK2 2.5 nM, 1 μM ATP; read-out: SIK2 IC50
SIK3 = SIK3 (Homo sapiens (Human), UniProt Q9Y2K2); test: In vitro SIK3 kinase assay; assay type: biochemical
Protocol: as §2

[7] = target: NanoLuc-SIK2 fusion in HEK293 cells (Homo sapiens (Human), UniProt Q9H0K1); test: cell-based; conditions: HEK293T cells; read-out: IC50 for SIK2 (nanoBRET)
Sequence of NanoLuc-SIK2 fusion in HEK293 cells (Q9H0K1 whole entry, the tested form may be a part): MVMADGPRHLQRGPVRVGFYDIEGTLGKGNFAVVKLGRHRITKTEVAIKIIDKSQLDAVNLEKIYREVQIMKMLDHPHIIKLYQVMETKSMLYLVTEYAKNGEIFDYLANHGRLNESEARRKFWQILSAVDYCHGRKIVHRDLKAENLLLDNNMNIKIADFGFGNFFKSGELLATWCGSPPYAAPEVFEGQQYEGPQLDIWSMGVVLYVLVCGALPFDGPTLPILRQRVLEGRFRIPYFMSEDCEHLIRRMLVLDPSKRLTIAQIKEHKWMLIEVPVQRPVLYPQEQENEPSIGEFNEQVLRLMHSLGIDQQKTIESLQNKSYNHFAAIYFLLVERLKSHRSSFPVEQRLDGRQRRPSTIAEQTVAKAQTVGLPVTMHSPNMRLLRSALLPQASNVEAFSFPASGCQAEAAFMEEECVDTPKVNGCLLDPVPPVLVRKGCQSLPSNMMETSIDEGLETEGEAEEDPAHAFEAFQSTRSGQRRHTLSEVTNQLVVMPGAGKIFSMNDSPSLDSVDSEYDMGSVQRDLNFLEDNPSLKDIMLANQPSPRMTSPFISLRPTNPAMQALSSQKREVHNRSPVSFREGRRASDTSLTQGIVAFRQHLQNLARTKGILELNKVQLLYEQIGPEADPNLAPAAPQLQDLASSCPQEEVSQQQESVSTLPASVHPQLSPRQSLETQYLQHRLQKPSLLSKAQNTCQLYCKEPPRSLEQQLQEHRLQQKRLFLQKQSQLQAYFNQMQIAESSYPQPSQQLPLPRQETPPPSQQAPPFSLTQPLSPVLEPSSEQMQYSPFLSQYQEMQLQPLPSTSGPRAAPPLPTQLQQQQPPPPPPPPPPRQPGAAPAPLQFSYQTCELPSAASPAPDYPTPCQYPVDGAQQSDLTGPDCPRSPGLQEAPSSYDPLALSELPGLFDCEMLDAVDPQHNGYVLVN

Sequence of Recombinant SIK2 (Q9H0K1 whole entry): as the sequence (Q9H0K1 whole entry, the tested form may be a part) above
Sequence of SIK1 in HEK293T cells (P57059 whole entry): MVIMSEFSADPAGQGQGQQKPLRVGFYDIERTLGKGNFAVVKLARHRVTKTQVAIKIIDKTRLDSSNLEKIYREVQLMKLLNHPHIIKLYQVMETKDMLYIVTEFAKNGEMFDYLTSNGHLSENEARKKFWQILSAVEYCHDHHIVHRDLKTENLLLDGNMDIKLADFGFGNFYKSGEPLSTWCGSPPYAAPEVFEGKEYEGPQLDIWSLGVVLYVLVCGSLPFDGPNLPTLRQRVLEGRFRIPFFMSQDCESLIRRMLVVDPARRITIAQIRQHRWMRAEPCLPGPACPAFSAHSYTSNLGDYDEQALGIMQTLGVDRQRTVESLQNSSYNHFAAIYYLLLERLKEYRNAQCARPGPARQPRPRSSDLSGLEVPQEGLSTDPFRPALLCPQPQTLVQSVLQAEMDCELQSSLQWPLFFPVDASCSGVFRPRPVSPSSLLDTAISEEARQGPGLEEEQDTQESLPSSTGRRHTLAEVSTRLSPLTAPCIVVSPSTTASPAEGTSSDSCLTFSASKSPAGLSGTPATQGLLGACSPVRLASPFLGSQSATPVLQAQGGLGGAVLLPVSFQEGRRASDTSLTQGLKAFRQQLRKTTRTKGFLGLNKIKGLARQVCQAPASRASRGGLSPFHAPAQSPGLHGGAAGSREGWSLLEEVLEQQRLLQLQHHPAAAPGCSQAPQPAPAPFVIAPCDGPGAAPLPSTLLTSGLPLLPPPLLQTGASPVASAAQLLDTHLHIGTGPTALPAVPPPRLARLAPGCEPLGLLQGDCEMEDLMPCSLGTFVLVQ
Sequence of SIK1 (P57059 whole entry): as above
Sequence of SIK3 (Q9Y2K2 whole entry): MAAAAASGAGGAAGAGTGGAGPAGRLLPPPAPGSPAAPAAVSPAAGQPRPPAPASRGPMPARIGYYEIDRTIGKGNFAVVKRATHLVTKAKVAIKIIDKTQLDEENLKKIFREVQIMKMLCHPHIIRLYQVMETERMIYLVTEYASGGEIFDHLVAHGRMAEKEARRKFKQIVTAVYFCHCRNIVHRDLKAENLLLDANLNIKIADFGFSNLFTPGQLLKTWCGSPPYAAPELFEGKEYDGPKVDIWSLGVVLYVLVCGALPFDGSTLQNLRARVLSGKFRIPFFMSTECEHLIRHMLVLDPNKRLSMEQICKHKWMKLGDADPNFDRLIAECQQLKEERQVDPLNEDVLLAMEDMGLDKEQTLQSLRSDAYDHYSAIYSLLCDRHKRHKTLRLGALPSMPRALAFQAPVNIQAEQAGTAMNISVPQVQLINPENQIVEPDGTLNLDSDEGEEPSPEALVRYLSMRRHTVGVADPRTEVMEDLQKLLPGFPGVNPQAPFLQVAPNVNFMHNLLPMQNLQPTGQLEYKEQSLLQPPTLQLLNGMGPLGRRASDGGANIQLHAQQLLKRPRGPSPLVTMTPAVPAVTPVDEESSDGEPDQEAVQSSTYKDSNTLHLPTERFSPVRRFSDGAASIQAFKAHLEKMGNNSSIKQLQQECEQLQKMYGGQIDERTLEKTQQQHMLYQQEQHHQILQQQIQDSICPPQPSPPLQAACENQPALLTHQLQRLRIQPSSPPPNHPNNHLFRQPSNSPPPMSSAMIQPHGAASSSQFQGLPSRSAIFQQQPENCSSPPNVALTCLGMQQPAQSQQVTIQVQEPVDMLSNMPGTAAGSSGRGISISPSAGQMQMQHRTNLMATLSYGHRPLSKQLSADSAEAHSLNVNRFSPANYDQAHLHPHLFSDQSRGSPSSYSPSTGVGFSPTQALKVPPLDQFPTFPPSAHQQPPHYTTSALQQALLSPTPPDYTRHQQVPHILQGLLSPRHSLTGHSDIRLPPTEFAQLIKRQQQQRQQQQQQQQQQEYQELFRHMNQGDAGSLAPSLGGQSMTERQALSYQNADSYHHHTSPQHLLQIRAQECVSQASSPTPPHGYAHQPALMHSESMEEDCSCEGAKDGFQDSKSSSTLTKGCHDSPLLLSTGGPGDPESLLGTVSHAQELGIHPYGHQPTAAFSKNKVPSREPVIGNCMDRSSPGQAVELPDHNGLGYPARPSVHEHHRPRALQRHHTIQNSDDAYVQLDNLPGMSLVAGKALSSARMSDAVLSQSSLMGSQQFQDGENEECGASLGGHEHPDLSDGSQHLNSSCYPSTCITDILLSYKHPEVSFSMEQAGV
Sequence of SIK3 in HEK293T cells (Q9Y2K2 whole entry): as above

In the case of `CCc1nnc(-c2c(OC)cc(-c3cnc4cc(-c5cnn(C)c5)ccn34)cc2OC)o1` [Example 51, 2-[2,6-Dimethoxy-4-[7-(1-methylpyrazol-4-yl)imidazo[1,2-a]pyridin-3-yl]phenyl]-5-ethyl-1,3,4-oxadiazole], the serum drug levels ([1]; 2 hours after oral gavage on day 13, 3 dose groups) was “increased in a dose-dependent manner; also recorded: Dose-dependent increases”, the “tolerability (health concerns, weight loss, toxicities)” value ([1]; mice, once daily oral gavage for 3 weeks) was “without obvious health concerns or weight loss; also recorded: without obvious toxicities” and the RANKL expression (RANKL) was “stimulates RANKL expression”. For the same compound, the RANKL expression (RANKL; listed as cmpd. 51) was “increased RANKL; also recorded: induction of RANKL”, the oral availability ([2]; single dose of 10 mg/kg) was “excellent oral availability” and the maximum serum concentration ([2]; single oral dose of 10 mg/kg) was 11 µM. The “primary spongiosa bone mineral density (BMD), microCT” value ([3]; distal femur, 40 mg/kg) was “increased bone mineral density (BMD)”, the “primary spongiosa bone volume fraction (BV/TV), microCT” value ([3]; distal femur, 40 mg/kg) was “increased primary spongiosa bone volume fraction (BV/TV)” and the “midshaft cortical bone tissue mineral density (TMD), microCT” value ([3]; listed as Cmpd. 51) was “increased cortical bone tissue mineral density”. For the same compound, the “midshaft cortical bone tissue mineral density (TMD), microCT” value ([3]; listed as cmpd. 51) was “gains in bone mass”, the SOST expression (SOST) was “reduces SOST” and the SOST expression (SOST; listed as cmpd. 51) was “suppressed SOST expression; also recorded: suppression of SOST expression”. The HDAC4/5 phosphorylation (HDAC4/5) was “reduces levels of HDAC4/5 phosphorylation”, the HDAC4/5 phosphorylation (HDAC4/5; listed as Cmpd. 51) was “reduced phosphorylated HDAC4/5 levels” and the HDAC4/5 phosphorylation (HDAC4/5; listed as cmpd. 51) was “dose-dependent reduction of phosphorylation”. For the same compound, the “TRAP-positive osteoclasts (tibia sections)” value ([4]; cmpd. 51 40 mg/kg) was “increased TRAP-positive osteoclasts”, the “osteoblasts (tibia sections)” value ([4]; cmpd. 51 40 mg/kg) was “increased osteoblasts” and the “trabecular bone (tibia sections, hematoxylin and eosin)” value ([4]; cmpd. 51 40 mg/kg) was “increased trabecular bone mass”. The “bone formation rate (BFR/BS), histomorphometry” value ([4]; distal femur metaphysis) was “increased the bone formation rate”, the “bone volume fraction (BV/TV), histomorphometry” value ([4]; distal femur metaphysis) was “increased bone volume fraction (BV/TV); also recorded: increased trabecular bone mass” and the “matrix apposition rate (MAR), histomorphometry” value ([4]; distal femur metaphysis) was “increased matrix apposition rate”. The “mineralizing surface (MS/BS), histomorphometry” value ([4]; distal femur metaphysis) was “Neither cmpd. 51 nor PTH treatment increased”, the “osteoblast surfaces (Ob.S.BS), histomorphometry” value ([4]; distal femur metaphysis) was “increased osteoblast surfaces” and the “osteoclast numbers (N.Oc/B.Pm), histomorphometry” value ([4]; distal femur metaphysis) was “increased osteoclast numbers”. For the same compound, the pEC50 (CRTC2 (TORC2); Homo sapiens, U2OS, read-out: CRTC2 nuclear translocation EC50) was 6.83, the “CRTC2 Efficacy (% of forskolin)” value (CRTC2 (TORC2); maximal CRTC2 nuclear translocation, U2OS cells, 90 minutes, maximum dose 10 μM) was 86.5 % of forskolin and the “serum CTX (bone resorption marker)” value ([5]; listed as Cmpd. 51) was “increasing this marker of bone remodeling”. For the same compound, the “serum P1NP (bone formation marker)” value ([5]; listed as Cmpd. 51) was “increasing this marker of bone remodeling”, the “serum CTX (bone resorption marker)” value ([5]; listed as cmpd. 51) was “increased” and the “serum P1NP (bone formation marker)” value ([5]; listed as cmpd. 51) was “increased P1NP”. The “serum 1,25-vitamin D” value ([5]; listed as Cmpd. 51) was “increased serum 1,25-vitamin D”, the “serum BUN” value ([5]; listed as Cmpd. 51) was “did not affect serum BUN levels” and the “serum PTH levels” value ([5]; listed as Cmpd. 51) was “suppressed PTH levels”. For the same compound, the serum calcium ([5]; listed as Cmpd. 51) was “increased serum calcium”, the serum phosphorus ([5]; listed as Cmpd. 51) was “did not affect serum phosphorus levels” and the “serum 1,25-vitamin D” value ([5]; listed as cmpd. 51) was “increased 1,25-vitamin D levels”. For the same compound, the “serum BUN” value ([5]; listed as cmpd. 51) was “did not alter”, the “serum PTH levels” value ([5]; listed as cmpd. 51) was “reduced serum PTH levels” and the serum calcium ([5]; listed as cmpd. 51) was “increased calcium”. For the same compound, the serum phosphorus ([5]; listed as cmpd. 51) was “did not alter”, the “Ctsk (cathepsin K) expression in cortical bone” value ([6]; RT-qPCR) was “expression was increased; also recorded: increases the expression” and the “Sost mRNA (sclerostin gene expression) in cortical bone” value ([6]; RT-qPCR) was “reduced sclerostin gene expression”. For the same compound, the “Spp1 (osteopontin) expression in cortical bone” value ([6]; RT-qPCR) was “expression was increased; also recorded: increases the expression of Spp1” and the “sclerostin protein levels in bone” value ([6]; immunohistochemistry) was “reduced”.
For `CCc1nnc(-c2c(OC)cc(-c3cnc4cc(-c5cnn(C6CC6)c5)ccn34)cc2OC)o1` [Example 55, 2-[4-[7-(1-Cyclopropylpyrazol-4-yl)imidazo[1,2-a]pyridin-3-yl]-2,6-dimethoxy-phenyl]-5-ethyl-1,3,4-oxadiazole], the “RANKL Fold Induction” value (RANKL; maximal RANKL fold induction versus DMSO, four hours) was 22.80 fold, the pIC50 (SIK3 in HEK293T cells) was 8.35 and the pIC50 (SIK1 in HEK293T cells) was 5.68. It also gave a pIC50 (SIK1) of 7.80, a pIC50 (Recombinant SIK2) of 8.83 and a pIC50 (SIK3) of 8.57. The pIC50 [7] was 7.91.
